Measurements published in patent publication US4310682A, “Halo-salicylanilide” (priority 1979, dated 1982).

What follows are compounds tested on Escherichia coli NIHJ JC-2 (assay: MIC, agar medium containing the compound). Details: bacterium No. 1, 37° C., 4 hours.
Type: cell-based
Experimental: (§1) In order to test antifungal and bactericidal activity of halo-salicylanilide obtained in above mentioned Examples, following bacteria and fungi are employed.
No. 1 Escherichia coli NIHJ JC-2
(§2) Bacteria No. 1 to No. 4 are respectively cultured in Hart Infusion bouillon medium at 37° C. for 20 hours and resulting medium liquids are employed for said test. Fungi No. 5 to No. 7 are respectively cultured in Sabouraud agar medium and 10^6 cell/ml of cell dispersing liquids obtained from said medium are employed for said test.

| Compound | MIC (Minimum Inhibitory Concentration) |
| --- | --- |
| Cc1cc(Br)ccc1NC(=O)c1cc(Br)ccc1O [compound 10, 5-bromo-2'-methyl-4'-bromo salicylanilide] | > 100 |
| COC1=CC(=O)C[C@@H](C)[C@]12Oc1c(Cl)c(OC)cc(OC)c1C2=O [Contrast No. 4, griseo fulvin, reference compound] | > 100 |
| CC(=O)Oc1ccc(Cl)cc1C(=O)Nc1ccc(Cl)cc1C [compound 4, 5-chloro-2'-methyl-4' chloro-acetyl salcylanilide] | > 100 |
| 5-chloro-2'-methyl-4'-bromo chloro salicylanilide [compound 7] | > 100 |
| Cc1cc(Br)ccc1NC(=O)c1cc(I)ccc1O [compound 5, 5-iodo-2'-methyl-4'-bromo salicylanilide] | > 100 |
| C=CCCCCCCCCC(=O)O [Contrast No. 3, undecylenic acid, reference compound] | > 100 |
| 5-bromo-2'-methyl-4'-acetylsalicylanilide [compound 11] | > 100 |
| Cc1cc(Cl)ccc1NC(=O)c1cc(F)ccc1O [compound 14, 5-fluoro-2'-methyl-4'-chloro salicylanilide] | > 100 |
| CC(=O)Oc1ccc(Br)cc1C(=O)Nc1ccc(Cl)cc1C [compound 9, 5-bromo-2'-methyl-4'-chloro acetylsalicylanilide] | > 100 |
| CC(=O)Oc1ccc(F)cc1C(=O)Nc1ccc(Cl)cc1C [compound 15, 5-fluoro-2'-methyl-4'-chloro acetylsalicylanilide] | > 100 |
| O=C(Nc1ccc(Cl)cc1)c1cc(Br)ccc1O [Contrast No. 1, reference compound] | > 100 |

These compounds were tested on Staphylococcus aureus FDA-209-P (assay: MIC, agar medium containing the compound). Details: bacterium No. 3, 37° C., 4 hours.
Type: cell-based
Experimental: as §1
No. 3 Staphylococcus aureus FDA-209-P
as §2

| Compound | MIC (Minimum Inhibitory Concentration) |
| --- | --- |
| Cc1cc(Br)ccc1NC(=O)c1cc(Br)ccc1O [compound 10, 5-bromo-2'-methyl-4'-bromo salicylanilide] | 0.2 |
| COC1=CC(=O)C[C@@H](C)[C@]12Oc1c(Cl)c(OC)cc(OC)c1C2=O [Contrast No. 4, griseo fulvin, reference compound] | > 100 |
| CC(=O)Oc1ccc(Cl)cc1C(=O)Nc1ccc(Cl)cc1C [compound 4, 5-chloro-2'-methyl-4' chloro-acetyl salcylanilide] | 0.1 |
| 5-chloro-2'-methyl-4'-bromo chloro salicylanilide [compound 7] | 0.8 |
| Cc1cc(Br)ccc1NC(=O)c1cc(I)ccc1O [compound 5, 5-iodo-2'-methyl-4'-bromo salicylanilide] | 0.37 |
| C=CCCCCCCCCC(=O)O [Contrast No. 3, undecylenic acid, reference compound] | > 100 |
| 5-bromo-2'-methyl-4'-acetylsalicylanilide [compound 11] | 0.2 |
| Cc1cc(Cl)ccc1NC(=O)c1cc(F)ccc1O [compound 14, 5-fluoro-2'-methyl-4'-chloro salicylanilide] | 0.4 |
| CC(=O)Oc1ccc(Br)cc1C(=O)Nc1ccc(Cl)cc1C [compound 9, 5-bromo-2'-methyl-4'-chloro acetylsalicylanilide] | 0.8 |
| CC(=O)Oc1ccc(F)cc1C(=O)Nc1ccc(Cl)cc1C [compound 15, 5-fluoro-2'-methyl-4'-chloro acetylsalicylanilide] | 0.4 |

Each compound was assayed on Pseudomonas aeruqinosa NC-5 (assay: MIC, agar medium containing the compound). Details: bacterium No. 2, 37° C., 4 hours.
Type: cell-based
Experimental: as §1
No. 2 Pseudomonas aeruqinosa NC-5
as §2

| Compound | MIC (Minimum Inhibitory Concentration) |
| --- | --- |
| Cc1cc(Br)ccc1NC(=O)c1cc(Br)ccc1O [compound 10, 5-bromo-2'-methyl-4'-bromo salicylanilide] | > 100 |
| CC(=O)Oc1ccc(Cl)cc1C(=O)Nc1ccc(Cl)cc1C [compound 4, 5-chloro-2'-methyl-4' chloro-acetyl salcylanilide] | > 100 |
| 5-chloro-2'-methyl-4'-bromo chloro salicylanilide [compound 7] | > 100 |
| 5-bromo-2'-methyl-4'-acetylsalicylanilide [compound 11] | > 100 |
| Cc1cc(Cl)ccc1NC(=O)c1cc(F)ccc1O [compound 14, 5-fluoro-2'-methyl-4'-chloro salicylanilide] | 100 |
| CC(=O)Oc1ccc(Br)cc1C(=O)Nc1ccc(Cl)cc1C [compound 9, 5-bromo-2'-methyl-4'-chloro acetylsalicylanilide] | > 100 |
| CC(=O)Oc1ccc(F)cc1C(=O)Nc1ccc(Cl)cc1C [compound 15, 5-fluoro-2'-methyl-4'-chloro acetylsalicylanilide] | 100 |
| O=C(Nc1ccc(Cl)cc1)c1cc(Br)ccc1O [Contrast No. 1, reference compound] | > 100 |

The compounds below were run on bacteria No. 1 to No. 4 and fungi No. 5 to No. 7 (assay: Antifungal and bactericidal activity test, overall assessment of Table 8). Details: referring to Table 8.
Type: cell-based
Experimental: as §1, §2
Referring now to Table 8, in said Examples the halo-salicylanilides provided have respectively remarkable higher antifungal and bactericidal activity than that of the contrasts proposed and said halo-salicylanilidesare especially effective on bacteria No. 3 and No. 4, and fungi No. 5, No. 6 and No. 7. This testifies that alkyl group of 2'-position of the halo-salicylanilides is significant for the activities of the compound. […] Especially the halo-salicylanilides having fluorine in 5-position are very useful for agricultural medicines.

| Compound | antifungal and bactericidal activity (assessment in words) |
| --- | --- |
| Cc1cc(Br)ccc1NC(=O)c1cc(I)ccc1O [compound 5, 5-iodo-2'-methyl-4'-bromo salicylanilide] | remarkable antifungal and bactericidal activity |

These compounds were tested on Candida albicans ATCC 10259 (assay: MIC, Sabouraud agar medium containing the compound). Details: fungus No. 5, 20° C., 14 days.
Type: cell-based
Experimental: as §1
No. 5 Candida albicans ATCC 10259
as §2

| Compound | MIC (Minimum Inhibitory Concentration) |
| --- | --- |
| Cc1cc(Br)ccc1NC(=O)c1cc(Br)ccc1O [compound 10, 5-bromo-2'-methyl-4'-bromo salicylanilide] | 100 |
| CC(=O)Oc1ccc(Cl)cc1C(=O)Nc1ccc(Cl)cc1C [compound 4, 5-chloro-2'-methyl-4' chloro-acetyl salcylanilide] | 100 |
| 5-chloro-2'-methyl-4'-bromo chloro salicylanilide [compound 7] | 100 |
| Cc1cc(Br)ccc1NC(=O)c1cc(I)ccc1O [compound 5, 5-iodo-2'-methyl-4'-bromo salicylanilide] | 3.2 |
| 5-bromo-2'-methyl-4'-acetylsalicylanilide [compound 11] | 100 |
| Cc1cc(Cl)ccc1NC(=O)c1cc(F)ccc1O [compound 14, 5-fluoro-2'-methyl-4'-chloro salicylanilide] | 100 |
| CC(=O)Oc1ccc(Br)cc1C(=O)Nc1ccc(Cl)cc1C [compound 9, 5-bromo-2'-methyl-4'-chloro acetylsalicylanilide] | 100 |
| CC(=O)Oc1ccc(F)cc1C(=O)Nc1ccc(Cl)cc1C [compound 15, 5-fluoro-2'-methyl-4'-chloro acetylsalicylanilide] | 100 |
| O=C(Nc1ccc(Cl)cc1)c1cc(Br)ccc1O [Contrast No. 1, reference compound] | > 100 |

Each compound was assayed on Trichophyton rubrum IFO 9185 (assay: MIC, Sabouraud agar medium containing the compound). Details: fungus No. 7, 20° C., 14 days.
Type: cell-based
Experimental: as §1
No. 7 Trichophyton rubrum IFO 9185
as §2

| Compound | MIC (Minimum Inhibitory Concentration) |
| --- | --- |
| Cc1cc(Br)ccc1NC(=O)c1cc(Br)ccc1O [compound 10, 5-bromo-2'-methyl-4'-bromo salicylanilide] | 0.8 |
| COC1=CC(=O)C[C@@H](C)[C@]12Oc1c(Cl)c(OC)cc(OC)c1C2=O [Contrast No. 4, griseo fulvin, reference compound] | 25 |
| CC(=O)Oc1ccc(Cl)cc1C(=O)Nc1ccc(Cl)cc1C [compound 4, 5-chloro-2'-methyl-4' chloro-acetyl salcylanilide] | 0.2 |
| 5-chloro-2'-methyl-4'-bromo chloro salicylanilide [compound 7] | 25 |
| Cc1cc(Br)ccc1NC(=O)c1cc(I)ccc1O [compound 5, 5-iodo-2'-methyl-4'-bromo salicylanilide] | 3.2 |
| C=CCCCCCCCCC(=O)O [Contrast No. 3, undecylenic acid, reference compound] | 50 |
| 5-bromo-2'-methyl-4'-acetylsalicylanilide [compound 11] | 0.8 |
| Cc1cc(Cl)ccc1NC(=O)c1cc(F)ccc1O [compound 14, 5-fluoro-2'-methyl-4'-chloro salicylanilide] | < 0.8 |
| CC(=O)Oc1ccc(Br)cc1C(=O)Nc1ccc(Cl)cc1C [compound 9, 5-bromo-2'-methyl-4'-chloro acetylsalicylanilide] | 25 |
| CC(=O)Oc1ccc(F)cc1C(=O)Nc1ccc(Cl)cc1C [compound 15, 5-fluoro-2'-methyl-4'-chloro acetylsalicylanilide] | < 0.8 |
| O=C(Nc1ccc(Cl)cc1)c1cc(Br)ccc1O [Contrast No. 1, reference compound] | 50 |

Each compound was assayed on Bacillus subtilis PCI-219 (assay: MIC, agar medium containing the compound). Details: bacterium No. 4, 37° C., 4 hours.
Type: cell-based
Experimental: as §1
No. 4 Bacillus subtilis PCI-219
as §2

| Compound | MIC (Minimum Inhibitory Concentration) |
| --- | --- |
| Cc1cc(Br)ccc1NC(=O)c1cc(Br)ccc1O [compound 10, 5-bromo-2'-methyl-4'-bromo salicylanilide] | 0.4 |
| COC1=CC(=O)C[C@@H](C)[C@]12Oc1c(Cl)c(OC)cc(OC)c1C2=O [Contrast No. 4, griseo fulvin, reference compound] | > 100 |
| CC(=O)Oc1ccc(Cl)cc1C(=O)Nc1ccc(Cl)cc1C [compound 4, 5-chloro-2'-methyl-4' chloro-acetyl salcylanilide] | 0.2 |
| 5-chloro-2'-methyl-4'-bromo chloro salicylanilide [compound 7] | 0.8 |
| Cc1cc(Br)ccc1NC(=O)c1cc(I)ccc1O [compound 5, 5-iodo-2'-methyl-4'-bromo salicylanilide] | 0.75 |
| C=CCCCCCCCCC(=O)O [Contrast No. 3, undecylenic acid, reference compound] | > 100 |
| 5-bromo-2'-methyl-4'-acetylsalicylanilide [compound 11] | 0.4 |
| Cc1cc(Cl)ccc1NC(=O)c1cc(F)ccc1O [compound 14, 5-fluoro-2'-methyl-4'-chloro salicylanilide] | 0.4 |
| CC(=O)Oc1ccc(Br)cc1C(=O)Nc1ccc(Cl)cc1C [compound 9, 5-bromo-2'-methyl-4'-chloro acetylsalicylanilide] | 0.8 |
| CC(=O)Oc1ccc(F)cc1C(=O)Nc1ccc(Cl)cc1C [compound 15, 5-fluoro-2'-methyl-4'-chloro acetylsalicylanilide] | 0.4 |

The compounds below were run on Aspergillus flavus IFO 8558 (assay: MIC, Sabouraud agar medium containing the compound). Details: fungus No. 6, 20° C., 14 days.
Type: cell-based
Experimental: as §1
No. 6 Aspergillus flavus IFO 8558
as §2

| Compound | MIC (Minimum Inhibitory Concentration) |
| --- | --- |
| COC1=CC(=O)C[C@@H](C)[C@]12Oc1c(Cl)c(OC)cc(OC)c1C2=O [Contrast No. 4, griseo fulvin, reference compound] | 25 |
| Cc1cc(Br)ccc1NC(=O)c1cc(I)ccc1O [compound 5, 5-iodo-2'-methyl-4'-bromo salicylanilide] | 3.2 |
| C=CCCCCCCCCC(=O)O [Contrast No. 3, undecylenic acid, reference compound] | 50 |
| O=C(Nc1ccc(Cl)cc1)c1cc(Br)ccc1O [Contrast No. 1, reference compound] | > 100 |
